Measurements reported in the NIST ThermoML archive (doi:10.1016/j.jct.2018.05.012).

Experiment: xn = mol fraction of the nth substance listed
Settings: 100 kPa, Liquid; for speed of sound: Frequency=3 MHz, Single path-length method; for mass density: Vibrating tube method

C1COCO1 [1,3-dioxolane] + C1COCCO1
Settings | mass density, 293.15 K [kg/m3] | mass density, 298.15 K [kg/m3] | mass density, 303.15 K [kg/m3] | mass density, 308.15 K [kg/m3] | speed of sound, 293.15 K [m/s] | speed of sound, 298.15 K [m/s] | speed of sound, 303.15 K [m/s] | speed of sound, 308.15 K [m/s]
x1 = 0.1184 | 1036.5 | 1030.8 | 1025.1 | 1019.3 | 1367 | 1345.1 | 1323.5 | 1301.6
x1 = 0.1694 | 1037.8 | 1032.1 | 1026.4 | 1020.6 | 1366.7 | 1344.8 | 1323.1 | 1301.2
x1 = 0.2145 | 1039 | 1033.3 | 1027.5 | 1021.7 | 1366.4 | 1344.5 | 1322.8 | 1300.8
x1 = 0.2632 | 1040.4 | 1034.6 | 1028.8 | 1022.9 | 1366.1 | 1344.1 | 1322.4 | 1300.5
x1 = 0.3154 | 1041.8 | 1036.1 | 1030.2 | 1024.3 | 1365.8 | 1343.8 | 1322.1 | 1300.1
x1 = 0.3689 | 1043.3 | 1037.6 | 1031.7 | 1025.8 | 1365.5 | 1343.5 | 1321.7 | 1299.7
x1 = 0.4184 | 1044.8 | 1039 | 1033.1 | 1027.2 | 1365.2 | 1343.1 | 1321.3 | 1299.4
x1 = 0.4697 | 1046.3 | 1040.5 | 1034.6 | 1028.6 | 1364.9 | 1342.8 | 1321 | 1299
x1 = 0.5124 | 1047.6 | 1041.8 | 1035.8 | 1029.9 | 1364.6 | 1342.5 | 1320.7 | 1298.7
x1 = 0.5674 | 1049.4 | 1043.6 | 1037.5 | 1031.5 | 1364.3 | 1342.1 | 1320.3 | 1298.3
x1 = 0.6282 | 1051.4 | 1045.5 | 1039.5 | 1033.4 | 1363.9 | 1341.7 | 1319.8 | 1297.9
x1 = 0.6734 | 1052.9 | 1047 | 1040.9 | 1034.8 | 1363.6 | 1341.4 | 1319.5 | 1297.5
x1 = 0.7231 | 1054.6 | 1048.7 | 1042.6 | 1036.5 | 1363.3 | 1341 | 1319.1 | 1297.1
x1 = 0.7626 | 1055.9 | 1050.1 | 1043.9 | 1037.8 | 1363 | 1340.7 | 1318.8 | 1296.8
x1 = 0.7992 | 1057.2 | 1051.4 | 1045.2 | 1039 | 1362.7 | 1340.4 | 1318.5 | 1296.5
x1 = 0.8486 | 1059 | 1053.1 | 1046.9 | 1040.7 | 1362.4 | 1340 | 1318.1 | 1296.1
x1 = 0.8815 | 1060.2 | 1054.3 | 1048.1 | 1041.9 | 1362.1 | 1339.8 | 1317.8 | 1295.8
x1 = 0.9102 | 1061.3 | 1055.4 | 1049.1 | 1042.9 | 1361.9 | 1339.5 | 1317.5 | 1295.5
